ChEMBL document CHEMBL4346764, “Design, synthesis, and evaluation of N-(4-(4-phenyl piperazin-1-yl)butyl)-4-(thiophen-3-yl)benzamides as selective dopamine D3 receptor ligands” (Bioorg Med Chem Lett, 2019)

Columns and labels:
[1] = AUC in Sprague-Dawley rat at 1 mg/kg, iv by LC/MS/MS analysis; assay type: ADME, organism-based; conditions: in vivo
[2] = Volume of distribution at steady state in Sprague-Dawley rat at 1 mg/kg, iv by LC/MS/MS analysis; assay type: ADME, organism-based; conditions: in vivo, read-out: Vdss

Structure (SMILES)	AUC [1] [ng·h/mL]	Vd [2] [L/kg]
N#Cc1cccc(N2CCN(CCCCNC(=O)c3ccc(-c4ccsc4)cc3)CC2)c1	220	28.6
O=C(NCCCCN1CCN(c2cc(Cl)cc(Cl)c2)CC1)c1ccc(-c2ccsc2)cc1	210	55.7
